In the CATMoS acute toxicity set (Mansouri et al. 2021):

Assay: GHS categories as the set defines them, by LD50: 1 up to 5, 2 up to 50, 3 up to 300, 4 up to 2000, 5 above 2000 mg/kg
Conditions: rat; in vivo; po

Row | SMILES | GHS category
1 | O=C(O)CCCCCCCC(=O)O | 5
2 | CC(C)C1=CC2=CC[C@H]3[C@](C)(CO)CCC[C@]3(C)[C@H]2CC1 | 5
3 | CNC(=O)Nc1ccc(Cl)c(Cl)c1 | 4
4 | CC1CC(C)C(C)C(C)C1 (stereo not given) | 5
5 | CCOc1ccc(OC)cc1-c1nc(=O)c2cc(C(=O)O)ccc2[nH]1 | 4
6 | Cn1c(=O)c2[nH]c(=O)[nH]c2n(C)c1=O | 5
7 | Nc1ccc(N=Nc2ccc(N=Nc3c(S(=O)(=O)O)cc4cc(S(=O)(=O)O)c(N=Nc5ccc(N=Nc6ccc(N)cc6N)cc5)c(O)c4c3N)cc2)c(N)c1 | 5
8 | COc1ccc(-c2ccc(C#N)cc2)cc1 | 5
9 | CCCCCCCCCCCCCCCCCC(=O)OCCO | 5
10 | CCOC(=O)c1cc(Cl)ccc1OC(N)=O | 5
11 | CC(C)Oc1ccc2c(c1)N(CCC1CCCCN1C)c1ccccc1S2 (stereo not given) | 5
12 | CNC[C@@H]1CC[C@@H](N)[C@@H](O[C@H]2[C@H](O)[C@@H](O[C@H]3OC[C@](C)(O)[C@H](NC)[C@H]3O)[C@H](N)C[C@@H]2N)O1 | 5
13 | CCn1cc(C(=O)O)c(=O)c2cc(F)c(N3CCNCC3)nc21 | 5
14 | Nc1nc(=O)c(Br)c(-c2ccccc2)[nH]1 | 5
15 | CNc1ccc(C(C)=O)cc1O | 5
16 | CC(=O)N1CCSC1C(=O)Oc1c(C)ncc(CO)c1CO (stereo not given) | 5
17 | COC(OC)N(C)C | 5
18 | Cc1ncoc1C(N)=O | 5
19 | CCCCOC(=O)C(=O)Nc1cccc(-c2nnn[nH]2)c1 | 5
20 | COc1ccc(C2COc3ccccc3O2)cc1O (stereo not given) | 5
21 | CC(CC(C)(C)C)CC(C)(C)C | 5
22 | O=C(Cc1ccccc1)Cc1ccccc1 | 5
23 | C/C=C(\C)C(=O)O | 5
24 | CO[Si](OC)(C1CCCC1)C1CCCC1 | 5
25 | COC(=O)CCCCCCCCCC[Si](C)(C)Cl | 5
26 | O=C1NC(=O)C(=c2[nH]c(=C3C(=O)NC(=O)NC3=O)c3ccccc23)C(=O)N1 | 5
27 | N[C@@H]1CONC1=O | 5

Row | SMILES | GHS category
28 | O=c1c2cc(Oc3ccc(Cl)cc3)ccc2nnn1Cc1cccnc1 | 5
29 | C[C@]12C[C@@H](O)[C@H]3[C@@H](CCC4=CC(=O)CC[C@@H]43)[C@@H]1CCC2=O | 4
30 | CN1C(=O)C(C)(C)Oc2cc(C(=O)c3ccc(Cl)cc3)ccc21 | 5
31 | CCN(C(=O)CCCSc1nnnn1C)C1CCCCC1O (stereo not given) | 4
32 | CC(C)C(=O)OCC=Cc1ccccc1 | 5
33 | CC(C)CCOC(=O)C=Cc1ccccc1 | 5
34 | CCO[Si](CCCNC=O)(OCC)OCC | 5
35 | CNC(=O)c1sc(-c2ccc(OC)c(OC)c2)nc1C | 5
36 | CN(CCNCc1cc(C(C)(C)C)cc(Br)c1O)CCNC(=O)c1nc(Cl)c(N)nc1N | 4
37 | O=C(NNCc1ccccc1)C(O)C(O)C(O)CO (stereo not given) | 5
38 | O=C(O)c1cccc2cccc(-c3cccc4cccc(C(=O)O)c34)c12 | 5
39 | COC(=O)c1ccc2cc(C(=O)OC)ccc2c1 | 5
40 | O=C1OC(CN2CCOCC2)CC12CC(CN1CCOCC1)OC2=O (stereo not given) | 5
41 | CCC1COC(Cn2ccnc2)(c2cc3cc(Cl)cc(Cl)c3o2)O1 (stereo not given) | 4
42 | C=CC(C)(O)CCCC(C)CCCC(C)CCCC(C)C (stereo not given) | 5
43 | O=CC=Cc1ccco1 | 4
44 | Clc1ccccc1-c1nnc(-c2ccccc2Cl)nn1 | 5
45 | C=CC(C)(CCC=C(C)CC)OC(C)=O (stereo not given) | 5
46 | O=S(=O)(O)c1ccc2c(ccc3nn(-c4ccc(C=Cc5ccc(-n6cncn6)cc5S(=O)(=O)O)c(S(=O)(=O)O)c4)nc32)c1 | 5
47 | CC(C)COC(=O)Nc1nc(N2CC=CCC2)cc2nc(=O)on12 | 5
48 | CCC(=O)N[C@H]1CCc2nc(N)sc2C1 | 5
49 | CCC1OC(=O)C(C)C(OC2CC(C)(OC)C(O)C(C)O2)C(C)C(OC2OC(C)CC(N(C)C)C2O)C(C)(O)CC(C)C(=O)C(C)C(O)C1(C)O (stereo not given) | 5
50 | CCOC(=O)c1cnn(-c2ccccc2)c1N | 4
51 | COc1ccccc1N1CCN(/C(N)=N/c2ccc(Cl)c(Cl)c2)CC1 | 4
52 | Nc1ccc(C(=O)NCCN2CCN(c3ccccn3)CC2)cc1 | 5
53 | CC[C@H](C)[C@@H]1NC(=O)[C@H](Cc2ccc(O)cc2)NC(=O)[C@@H](N)CSSC[C@@H](C(=O)N2CCC[C@H]2C(=O)N[C@@H](CC(C)C)C(=O)NCC(N)=O)NC(=O)[C@H](CC(N)=O)NC(=O)[C@H](CCC(N)=O)NC1=O | 2
54 | CCC(=O)OCC(C)(C)OC(C)C1CCCC(C)(C)C1 (stereo not given) | 5

Row | SMILES | GHS category
55 | Clc1ccc(Cn2ccnc2-c2ccccc2)cc1 | 4
56 | CCCCCC(=O)OC | 5
57 | CC(SCC(=O)O)c1ccc2c(c1)Cc1ccccc1-2 (stereo not given) | 4
58 | C=C[Si]1(C)O[Si](C)(C=C)O[Si](C)(C=C)O[Si](C)(C=C)O1 (stereo not given) | 5
59 | CCCCCCCCCCCCCCCCCCOC(=O)CCc1cc(C(C)(C)C)c(O)c(C(C)(C)C)c1 | 5
60 | CCOC(=O)CCNc1ccccn1 | 5
61 | CCCCCCCCCCCCCC[Si](C)(O[Si](C)(C)C)O[Si](C)(C)C | 5
62 | Cc1nc(Cl)cc(Nc2ncc(C(=O)Nc3c(C)cccc3Cl)s2)n1 | 5
63 | CC(C)CCCCCCCOP(=O)(Oc1ccccc1)Oc1ccccc1 | 5
64 | CC(C)CCCCCC(=O)NCCCCCC(=O)O | 5
65 | COC(=O)c1ccccc1S(=O)(=O)NC(=O)Nc1nc(C)cc(C)n1 | 5
66 | CCC=CCCCCCCCC(=O)OC | 5
67 | CN(C)CCOC(=O)C(c1ccccc1)C1(O)CCCC1 (stereo not given) | 5
68 | CCCCCCCCCCCCCCCCCCCN | 5
69 | COc1ccc(N)cc1N | 5
70 | O=C(O)C(=O)[C@@H](O)[C@H](O)[C@H](O)CO | 5
71 | CCO[Si](CCCSSCCC[Si](OCC)(OCC)OCC)(OCC)OCC | 5
72 | CCCCOC(=O)c1ccccc1N | 5
73 | Cc1cc(C(=O)NCCc2ccc(S(=O)(=O)NC(=O)NN3CCCCCC3)cc2)no1 | 5
74 | CC1(C)S[C@@H]2[C@H](/N=C/N3CCCCCC3)C(=O)N2[C@H]1C(=O)O | 5
75 | CCCCc1c(Cc2ccc(-c3ccccc3-c3nn[nH]n3)cc2)c(=O)nc2nc[nH]n12 | 4
76 | CN1C(=O)COc2cc(C(=O)C=Cc3ccccc3)ccc21 | 5
77 | CCCC(=O)c1ccc2c(c1)oc(=O)n2C | 5
78 | O=c1c2n[nH]nc2nc2sc(CCC3CCCCC3)nn12 | 5
79 | CCN(CC)c1ccc(N=Nc2ncc([N+](=O)[O-])s2)cc1 | 5
80 | CCc1cccc(CC)c1NC(=O)c1sc(N)nc1C | 4
